Source: patent US8617604B2, “Pharmaceutical compositions with enhanced performance” (Bend Research, Inc., priority 2005, dated 2013)
Read-outs that look alike come from different tables or passages of the source. Each block holds one compound with its values, some of them ahead of it.

Legend:
[1] = Microcentrifuge dissolution test; type: physicochemical
[2] = Aqueous solubility of the drugs; type: physicochemical; conditions: aqueous medium (not specified further)
[3] = In vitro membrane permeation test (maximum flux of drug across membrane); conditions: 100 μgA/mL; for Maximum Flux of Drug 5: Table 15, feed 0.5 wt % NaTC/POPC, permeate 60 wt % decanol in decane
Source text: An Accurel® PP 1E microporous polypropylene membrane was obtained from Membrana GmbH (Wuppertal, Germany). The membrane was washed in isopropyl alcohol and rinsed in methanol in a sonicating bath for one minute at ambient temperature, and then allowed to air dry at ambient temperature. The feed side of the membrane was then plasma-treated to render it hydrophilic by placing a sample of the membrane in a plasma chamber. The atmosphere of the plasma chamber was saturated with water vapor at a pressure of 550 mtorr. A plasma was then generated using radio frequency (RF) power inductively coupled into the chamber via annular electrodes at a power setting of 50 Watts for 45 seconds. The contact angle of a drop of water placed on the surface of the plasma-treated membrane was about 40°. The contact angle of a drop of water placed on the permeate side of the same membrane was greater than about 110°.
A permeate reservoir was formed by capping the open end of a glass tube having an inside diameter of about 2 54 cm by gluing a sample of the plasma-treated membrane to the tube using an epoxy-based glue (LOCTITE® E-30CL HYSOL® from Henkel Loctite Corp, Rocky HUI, Conn.). The membrane was oriented so that its feed side was on the outside of the permeate reservoir and its permeate side was on the inside of the reservoir. The effective membrane area of the membrane capping the permeate reservoir was about 4.9 cm^2. The permeate reservoir was placed into a glass feed reservoir. The feed reservoir was equipped with a magnetic stir bar and the reservoir was placed on a stir plate and the stir rate was set to 100 rpm during the test. The apparatus was placed into a chamber maintained at 37° C. for the duration of the test.
To this was added 5 mL of an aqueous solution designed to model the fed state, consisting of a Phosphate Buffered Solution (PBS) containing 29.2 mM or 2 wt % sodium taurocholic acid and 5.6 mM of 1-palmitoyl-2-oleyl-sn-glycero-3-phosphocholine (NaTC/POPC). […] The feed solution was mixed using a vortex mixer for 1 minute. Before the membrane contacted the feed solution, 5 mL of 20 wt % decanol in decane was placed into the permeate reservoir. Time zero in the test was when the membrane was placed in contact with the feed solution. A 50 μL aliquot of the permeate solution was collected at 20, 40, 60, 90, 120, 180, 240, and 350 minutes. Samples were then diluted in 250 μL isopropyl alcohol and analyzed using HPLC.
The maximum flux of drug across the membrane (in units of μgA/cm^2-min) was determined by performing a least-squares fit to the data to obtain the maximum slope, multiplying the slope by the permeate volume (5 mL), and dividing by the membrane area (4.9 cm^2).
The maximum flux of drug across the membrane (in units of μgA/cm^2-min) was determined by estimating the tangent to the concentration versus time curve at time 0.
To this was added 5 mL of the Model Fasted Duodenum (MFD) solution consisting of Phosphate Buffered Saline (PBS) solution containing 7.3 mM sodium taurocholic acid and 1.4 mM of 1-palmitoyl-2-oleyl-sn-glycero-3-phosphocholine (0.5% NaTC/POPC). […] The feed solutions were each mixed using a vortex mixer for 1 minute. Before the membrane contacted the feed solutions, 5 mL of 20 wt % decanol in n-decane was placed into the permeate reservoir. Time zero in the test was when the membrane was placed in contact with the feed solution. […] Samples were then diluted in 250 μL isopropyl alcohol and analyzed using HPLC.

[4] = Table 19, Drug 2, MFD solution, 1000 μgA/mL
[5] = Table 18, Drug 1, PBS pH 6.5, 37° C., 1000 μgA/mL
[6] = Table 20, Drug 1, microcentrifuge dissolution test described above

SMILES: O=C(NOCC1CC1)c1ccc(F)c(F)c1Nc1ccc(I)cc1Cl [Control C2]
AUC90 [1, 4]: 4200 min · μgA/mL
MDC90 [1, 4]: 101 μgA/mL

SMILES: O=C1Cc2cc(CCN3CCN(c4nsc5ccccc45)CC3)c(Cl)cc2N1 [Drug 4]
solubility ([2]; free base form): < 0.1 µg/mL
solubility ([2]; hydrochloride salt form): ~10 µg/mL

SMILES: O=C1Cc2cc(CCN3CCN(c4nsc5ccccc45)CC3)c(Cl)cc2N1 [Control C5]
Maximum Flux of Drug 5 [3]: 0.099 μgA/cm^2-min

SMILES: CCOC(=O)N1c2ccc(C(F)(F)F)cc2[C@@H](N(Cc2cc(C(F)(F)F)cc(C(F)(F)F)c2)C(=O)OC)C[C@H]1CC [Control C1]
Maximum Flux of Drug 1 (120 μg/mL): 0.091 μgA/cm^2-min
Maximum Flux of Drug 1 (120 μgA/mL): 0.08 μgA/cm^2-min
AUC90 ([1]; Table 11, Drug 1, PBS pH 6.5, 37° C., area under the curve from 0 to 90 minutes): <88 min · μgA/mL
MDC90 ([1]; Table 11, Drug 1, PBS pH 6.5, 37° C., maximum drug concentration between 0 and 90 minutes): <1 μgA/mL
AUC90 [1, 5]: <100 min · μgA/mL
MDC90 [1, 5]: <1 μgA/mL
AUC90 [1, 6]: <100 min · μgA/mL
MDC90 [1, 6]: <1 μgA/mL

SMILES: O=C1Cc2cc(CCN3CCN(c4nsc5ccccc45)CC3)c(Cl)cc2N1 [Control C4]
Maximum Drug Flux ([3]; Table 21, Drug 4, feed 0.5% NaTC/POPC (MFD), permeate 60 wt % decanol in n-decane): 0.16 μgA/cm^2-min

More lines, now with the values ahead:

solubility [2]: < 0.1 µg/mL
SMILES: CCOC(=O)N1c2ccc(C(F)(F)F)cc2[C@@H](N(Cc2cc(C(F)(F)F)cc(C(F)(F)F)c2)C(=O)OC)C[C@H]1CC [Drug 1, [2R,4S]-4[(3,5-bis-trifluoromethyl-benzyl)-methoxycarbonyl-amino]-2-ethyl-6-trifluoromethyl-3,4-dihydro-2H-quinoline-1-carboxylic acid ethyl ester]

Maximum Flux of Drug 5 [3]: 0.07 μgA/cm^2-min
SMILES: O=C1Cc2cc(CCN3CCN(c4nsc5ccccc45)CC3)c(Cl)cc2N1 [Control C6]
